Test results from US12365705B2, “Epitope tags recognized by specific binders” (NANOTAG BIOTECHNOLOGIES GmbH, priority 2018, dated 2025).

What was measured:
[1] = property of tag; cited from earlier work
[2] = system: NbALFA^ST (SEQ ID NO: 133); assay: Off-rate assay: peptide elution of ALFA-tagged shGFP2 fusions from ALFA Selector^ST resin; format: binding, Alpaca
Method: After washing 4 times with PBS, the beads were suspended in a 10-fold excess of PBS containing 200 μM ALFA^ST peptide (Ac-[sequence]-Amide, SEQ ID NO: 179) and gently mixed at room temperature. At indicated time points, specific elution from the beads was quantified using the GFP fluorescence released into the supernatant. Shown are mean fluorescence values from three independent experiments performed in parallel and standard deviations for each time point. […] C, 10 μl of ALFA Selector^ST resin saturated with either ALFA^ST-shGFP2 (top row) or ALFA^PE-shGFP2 (bottom row) were transferred into 8-well PCR strips. After removing remaining liquid, the beads were incubated with 10 μl of the indicated substances for 60 min at room temperature. Photos were taken after sedimentation of the beads.
20 μl ALFA Selector^ST or ALFA Selector^PE (NanoTag Biotechnologies) was saturated with the respective recombinant target protein. After washing 4× with PBS, the beads were suspended in a 10-fold excess of PBS containing 200 μM free ALFA^ST peptide and mixed at 25° C. Control reactions were carried out without peptide. At indicated time points, specific elution from the beads was quantified using the GFP fluorescence released into the supernatant (Q-Bit 3.0; Thermo-Fischer Scientific). Three independent experiments were performed in parallel. Mean values, standard deviations and exponential fits were calculated using GraphPad Prism 5.0. Photographic pictures were taken upon UV illumination using a Nikon D700 equipped with a 105 mm macro lens (Nikon).

[3] = system: NbALFA^PE (SEQ ID NO: 134); assay: Off-rate assay: peptide elution of ALFA^ST-tagged shGFP2 from ALFA Selector^PE resin; format: binding, Alpaca; settings: for t1/2: peptide elution from ALFA Selector^PE
NbALFA^PE (SEQ ID NO: 134), sequence (as listed by the source): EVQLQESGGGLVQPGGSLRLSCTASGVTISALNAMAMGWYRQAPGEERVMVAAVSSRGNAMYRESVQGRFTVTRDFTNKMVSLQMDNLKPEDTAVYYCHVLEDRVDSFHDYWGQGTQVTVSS
Method: FIG. 8: Interaction of ALFA^ST-tagged proteins with ALFA Selector^ST and ALFA Selector^PE resins. • A; Sketch of ALFA Selector resins bound to shGFP2-ALFA^ST. In this sketch, the ALFA Selector resin could be ALFA Selector^ST or ALFA Selector^PE. • B and C; Peptide elution from NbALFA-coupled affinity resins. […] To estimate off-rates, the resins were suspended PBS containing an excess of free ALFA^ST peptide and incubated at 25° C. Control reactions were carried out without peptide. At indicated time points, shGFP2 released from the resin was quantified. […] Lines represent fits to a single exponential. Efficient peptide elution of shGFP2-ALFA^ST from ALFA Selector^E was observed already after 15-20 min at room temperature. […] A photo was taken upon UV illumination after 3 h of elution (C). • D; Resistance towards stringent washing steps. ALFA Selector variants described in B were charged with either ALFA^ST-shGFP2 or shGFP2-ALFA^ST and incubated with a 10-fold volume of the indicated substances for 1 h at 25° C. with shaking. Without further washing steps, photos were taken upon UV illumination after sedimentation of the beads. • E; Resistance towards non-physiological pH. Similar to D. Here, however, the resin was washed to remove non-bound material after incubating at indicated pH for 30 min. Photos were taken after re-equilibration in PBS to allow for recovery of the GFP fluorescence.
After washing with PBS, the beads were suspended in a 10-fold excess of PBS containing 200 μM free ALFA^ST peptide and gently mixed at 25° C. Control reactions were carried out without peptide. At indicated time points, specific elution from the beads was quantified using the GFP fluorescence released into the supernatant. Shown are mean fluorescence readings of three experiments as well as standard deviations for each time point. Lines represent fits to a single exponential. Half times are given for peptide elution from ALFA Selector^PE only. […] FIG. 10A recapitulates data shown in FIG. 8B and is repeated here to allow for a direct comparison. Left panels: Sketch illustrating the experimental setup. The ALFA Selector resin could be ALFA Selector^ST or ALFA Selector^PE; middle panels: Experiments performed with ALFA Selector^ST; right panel: Experiments performed with ALFA Selector^PE.
Next, we site-specifically immobilized NbALFA^ST on an agarose-based resin with ultra-low background via a hydrophilic and flexible linker. Binding to the nanobody-coupled resin was analyzed using an ALFA^ST-tagged GFP variant (shGFP2; Frey, S. et al. Surface Properties Determining Passage Rates of Proteins through Nuclear Pores. Cell 174, 202-217.e9 (2018); FIG. 8A, B). As expected, shGFP2-ALFA^ST efficiently and tightly bound to the resulting resin. […]

[4] = system: ALFA^ST-tagged target proteins (ALFA^ST-Vimentin or Tom70-EGFP-ALFA^ST); assay: Intrabody-based detection in co-transfected COS-7 cells; format: cell-based; settings: co-expression in cytoplasm
Excerpt: Grey boxes indicate CDRs 1-3 (AbM definition, SEQ ID NOs: 115-117). • C: COS-7 cells transfected with Tom70-EGFP-ALFA^ST (upper row) or Tom70-EGFP-ALFA^PE (lower row) were fixed with 4% paraformaldehyde. […] First column: FluoTag-X2 anti-ALFA; second column: target detection using the intrinsic EGFP fluorescence; third column: overlay incl. […] Right column: Sketch of ALFA-tagged vimentins detected by fluorescently labeled NbALFA^ST. • E: Intrabody-based detection of ALFA^ST-tagged proteins. COS-7 cells were co-transfected with an NbALFA^ST-mScarlet-I fusion and ALFA^ST_tagged target proteins. Target proteins were detected via EGFP fluorescence (for TOM70-EGFP-ALFA^ST) or immunofluorescence using FluoTag anti-ALFA AbberiorStar635P (for ALFA^ST-FLAG-Vimentin). In parallel, NbALFA^ST-mScarlet-I was detected by the red mScarlet-I fluorescence. Note the excellent co-localization between the target protein (left column) and the mScarlet-I signal (middle column).
We next wanted to know if our NbALFA^ST can also be used as an intrabody. […]

Molecule: YPYDVPDYA [HA-tag]
- Water solubility [1]: poor

Molecule: ALFA^ST-shGFP2: GFP variant shGFP2 with N-terminal ALFA^ST tag
- protein remained on the resin ([2]; after 90 minutes competition with 10 column volumes of 200 μM ALFA^ST peptide): > 95%
- t1/2 ([3]; N-terminal ALFA^ST tag): ~0.833 min

Molecule: shGFP2-ALFA^ST: GFP variant shGFP2 with C-terminal ALFA^ST tag
- protein remained on the resin ([2]; after 60 minutes competition with 10 column volumes of 200 μM ALFA^ST peptide): > 95%
- peptide elution from ALFA Selector^ST ([2]; excess of free ALFA^ST peptide (200 μM)): inefficient even after prolonged incubation
- time to efficient release from ALFA Selector^PE ([3]; native conditions, room temperature, competition with free ALFA^ST peptide): 15 to 20 min
- washing time over which target protein remained stably bound to ALFA Selector^PE ([3]; no free peptide): > 1 h
- t1/2 ([3]; C-terminal ALFA^ST tag): ~3 min

B1: NbALFA^ST fused to mScarlet-I: NbALFA^ST fused to red fluorescent protein mScarlet-I, used as intrabody (protein)
chain: MGSGDASDSEVQLQESGGGLVQPGGSLRLSCTASGVTISALNAMAMGWYRQAPGERRVMVAAVSERGNAMYRESVQGRFTVTRDFTNKMVSLQMDNLKPEDTAVYYCHVLEDRVDSFHDYWGQGTQVTVSSEPKTPKPQTSGSTGENVATMVSKGEAVIKEFMRFKVHMEGSMNGHEFEIEGEGEGRPYEGTQTAKLKVTKGGPLPFSWDILSPQFMYGSRAFIKHPADIPDYYKQSFPEGFKWERVMNFEDGGAVTVTQDTSLEDGTLIYKVKLRGTNFPPDGPVMQKKTMGWEASTERLYPEDGVLKGDIKMALRLKDGGRYLADFKTTYKAKKPVQMPGAYNVDRKLDITSHNEDYTVVEQYERSEGRHSTGGMDELYK
modifications: fusion protein
notes: NbALFA^ST fused to red fluorescent protein mScarlet-I, used as intrabody
- co-localization of mScarlet-I signal with target protein [4]: robustly co-localized
